# Results: a melting point compilation (Tetko et al.; mined from patent text by program, amines drawn as free bases though some values may be those of a salt)
row,melting point,Structure (SMILES)
1,76 °C,COc1ccc(CC(N)(C#N)CF)cc1OC (stereo not given)
2,250 to 252 °C,CCN(CC)Cc1ccc(CN2C(=O)COc3c(C)cc(C=C4SC(=S)NC4=O)cc32)cc1
3,210 to 215 °C,CC(C(=O)NN1CCOCC1)C(C#N)(c1ccccc1)c1ccccc1 (stereo not given)
4,170 °C,CCCCCCCCCCCCCCCCCCOc1ccc(NC(=O)c2ccc(O)cc2)cc1
5,115 to 116 °C,FC(F)(F)c1ccc(C2=CCC(N3CCN(Cc4ccccc4)CC3)CC2)cc1 (stereo not given)
6,64 to 65 °C,CCCCCCCCCCCCCCCCC[C@@H](C[C@@H]1OC(=O)[C@H]1CCCCCC)OC(=O)[C@H](CC(C)C)NC=O
7,195 to 196 °C,O=C1Cc2cc(F)cc(C(=O)c3ccc(F)cc3)c2N1
8,297 to 300 °C,Cc1ccc(N2CN(C(=O)c3ccccc3)C3=NN=CC3=C2N)cc1
9,71 to 72 °C,COc1ccc2c(c1)C(=O)C(Cc1ccccc1)CO2 (stereo not given)
10,68.6 °C,CC(C)(C)OC(=O)COc1ccccc1C=O
11,110 to 112 °C,Cc1c(-c2ccc(Cl)cc2Cl)nn(C)c1S(C)(=O)=O
12,222 to 223 °C,Cc1nsc(NC(=O)C(C)c2ccc(O)c(N)c2)c1Cl (stereo not given)
13,130 to 134 °C,CC(C)(C#N)ON1C(C)(C)CNC(=O)CC1(C)C
14,110 to 113 °C,N#CC1(Sc2ccccc2)Cc2cc3c(cc21)N(C(=O)Nc1cccnc1)CC3 (stereo not given)
15,162 to 163 °C,Cc1ccc(C(=O)NCCO)cc1-n1c(C)cc(OCc2ccccc2CNC(=O)Nc2cc(C(C)(C)C)nn2-c2cccc(OCCO)c2)c(Cl)c1=O
16,208 °C,CCCCc1nc2c(n1Cc1ccc(-c3ccccc3S(N)(=O)=O)cc1)C(=O)C(F)CS2 (stereo not given)
17,76 °C,C[Si](C)(C)c1ccc(-c2ccc(I)cc2F)c(F)c1F
18,178 to 180 °C,COc1cc(SCCCc2ccc(-c3ccc(CCCSc4ccc(OCC(=O)O)c(OC)c4)cc3)cc2)ccc1OCC(=O)O
19,111 to 113 °C,N#CCN1C(=O)COc2cc(F)ccc21
20,172 to 174 °C,CCOc1cc2c(cc1OCC)-c1c(C#N)sc(=O)n1CC2
21,126 to 128 °C,CCOc1ccc(C(=O)NCc2ccc3c(c2)C(=O)N(C2(C)CCC(=O)NC2=O)C3=O)nn1 (stereo not given)
22,150 to 151 °C,CCCC1=C(C(=O)OCC)C(c2ccccc2Cl)c2cn(C)nc2N1 (stereo not given)
23,218 to 220 °C,CCOC(=O)C(=O)Nc1coc2cc(OC)ccc2c1=O

row,melting point,Structure (SMILES)
1,172 to 173 °C,CC(C)S(=O)(=O)C(C#N)=C(Nc1cc(C(F)(F)F)cc(C(F)(F)F)c1)NC1CCCC1
2,240 °C,C=Cc1ccc(CSC2C(=O)N(c3c(Cl)cc(Cl)cc3Cl)N=C2Nc2cc(NC(C)=O)ccc2Cl)cc1 (stereo not given)
3,205 to 207 °C,CC(C)c1cc(OC2CN(C(c3ccccc3)c3ccccc3)C2)cc2c1C(=O)N(COC(=O)c1c(Cl)cccc1Cl)S2(=O)=O
4,223 °C,Cc1csc2c1c(N1CCN(C(=O)c3cccs3)CC1)c(C#N)c(=O)n2Cc1ccccc1
5,176 to 179 °C,Cc1nnc(Sc2nc3cc(C(=O)c4ccccc4)ccc3nc2C(F)(F)F)s1
6,296 to 297 °C,O=c1c2c(nc3n1CCc1c-3[nH]c3cc(Cl)cc(Cl)c13)CCCC2
7,95 to 97 °C,CCOC(=O)C(=CNc1ccnn1Cc1ccncc1)C(=O)OCC
8,205 to 207 °C,CN(Cc1ccccc1)Cc1c(-c2ccc(N)cc2)sc2c1c(=O)n(-c1ccccc1)c(=O)n2Cc1c(F)cccc1F
9,190 to 192 °C,OCc1nc(-c2ccc3nc(-c4ccc(Cl)cc4)cn3c2)cs1
10,188 to 189 °C,COc1cc2c(cc1Nc1ncc(Cl)c(Nc3ccccc3S(=O)(=O)N(C)C)n1)CCN(CC(C)(C)O)CC2
11,196 to 197 °C,Cc1c(NC(=O)c2ccc(OCc3ccc(C(F)(F)F)cc3)cc2)ccc2cc(CN3CCCC3)cnc12
12,117 to 118 °C,CC1(c2cccc(NS(C)(=O)=O)c2)C2CN(Cc3ccccc3)CC21 (stereo not given)
13,158 to 159 °C,CNC(=O)N(O)CCNC(=O)c1ccc2ccccc2n1
14,147 to 148 °C,COC(=O)c1nc(C2CC2)nc(N)c1Cl
15,116 °C,O=C(CSCc1ccc(Cl)cc1Cl)NO
16,144 to 148 °C,CN(Cc1sc2c(=O)c(C(=O)NCc3ccc(Cl)cc3)cn(C)c2c1CN)C[C@@H](O)c1ccccn1
17,88 to 90 °C,COc1cc(NC(=O)CCCCCN2CCN(CCO)CC2)c2nccc(C)c2c1
18,216 to 219 °C,NC(=O)c1ccc(-c2ccc3nnn(Cc4c(F)cc5ncccc5c4F)c3n2)cc1Cl
19,161 to 163 °C,Cc1cccc(C=NN2C(=O)CN(C(c3ccccc3)c3ccccc3)CC2=O)n1
20,126 to 127 °C,Cc1ccc(/C=C/[C@@]2(O)C[C@H](O)CC(=O)O2)cc1
21,87 to 88 °C,C=CCNc1nc(NCC=C)c2scc(Br)c2n1
22,232 °C,CC1=C(S(C)(=O)=O)C(c2ccc(Cl)c([N+](=O)[O-])c2)C2=C(CCC2=O)N1 (stereo not given)
23,112 to 113 °C,CCc1cc(-c2ccccc2)nn1-c1ccc([N+](=O)[O-])cc1

row,melting point,Structure (SMILES)
1,206 to 208 °C,CCOC(=O)c1c(-c2ccncc2)[nH]c(-c2ccncc2)c1C
2,110 °C,CC(SC1COC(c2ccc(C(=O)Nc3ccc(C#N)cc3)cc2F)OC1)C(O)(Cn1cncn1)c1ccc(F)cc1F (stereo not given)
3,225 to 227 °C,O=C1CC(c2cccc(-n3ccnc3)c2)=Nc2cc(N3CCC(OCCO)CC3)c(-c3ccc(F)cc3)cc2N1
4,99 to 101 °C,BrCc1cc2ccsc2c2ccccc12
5,108 to 110 °C,CC(Cc1cccnc1)NC(=O)[C@@H]1C[C@H](C)CC[C@H]1C(C)C (stereo not given in full)
6,195 to 196 °C,O=[N+]([O-])c1ccc(NN=C(Cl)c2ccccc2)cc1
7,218 °C,Nc1cc(=O)n(Cc2ccc3c(c2)OCO3)[nH]1
8,186 °C,O=S(=O)(NCc1ccccc1)c1cc(F)c2cccnc2c1O
9,164 to 165 °C,CCOC(=O)c1c(Cn2cncn2)nc2sc3c(c2c1-c1ccc(OC)c(OC)c1)CCNC3
10,55.5 to 56.5 °C,CC(C)(C)OC(=O)NCc1ccccc1
11,250 to 251 °C,CCn1ncc2c(O)c(CCc3ccccc3)c(C(=O)O)nc21
12,144 to 146 °C,CCOc1nc2ccccc2nc1N(CC)C(=O)N1CCN(c2cc(OC)cc(OC)c2)CC1
13,119 to 121 °C,N#Cc1cc(C(=O)Cl)n(/C=C/c2ccccc2)c1
14,150 to 151 °C,COc1ccnc(CC(C)(C)C(=O)O)c1
15,106 °C,CCc1noc(-c2cn(-c3ccccc3OCc3ccccc3)cn2)n1
16,108 to 109 °C,COCCNC(=O)c1cc(F)cc(-c2cccc3cc(Cc4ccc(F)c(Cl)c4)sc23)c1
17,190 to 191 °C,CC(=NNc1ccc(C(F)(F)F)cc1)C(=O)O
18,207 °C,O=C(O)CC[C@H](NC(=O)c1cc2ccccc2[nH]1)C(=O)NC(c1ccc(Cl)cc1)c1ccc(Cl)cc1
19,187 to 188 °C,CCN1c2ncc(CCc3ccccc3)cc2C(=O)N(C)c2c1ncc(C)c2C
20,182 to 184 °C,CC(=O)Nc1cccc2c1C1(COc3cc4c(cc31)OCCO4)C(=O)N2C (stereo not given)
21,120 to 122 °C,OC1(c2cccs2)C(c2ccccc2Cl)SC2=NCCCCN21 (stereo not given)
22,194 to 196 °C,COc1cc2cnnc(N3CCC4(CC3)OCCCO4)c2cc1OC
23,182 to 189 °C,O=C(Cn1nnc2ccccc21)Nc1ccc(-n2nc(C(F)(F)F)c(Cl)c2C2CC2)nc1

row,melting point,Structure (SMILES)
1,161 to 166 °C,COc1ccc(S(=O)(=O)N2C(=O)C(c3ccccc3OC)(N3CCC[C@H]3C(=O)N3CCC3)c3cc(Cl)ccc32)c(OC)c1 (stereo not given in full)
2,204 to 205 °C,CCn1nc(-c2ccccc2)c(C(C)=O)c(Nc2cccc3nc(C)ccc23)c1=O
3,260 °C,O=C(O)CN1C(=O)c2cccc3c(Cl)ccc(c23)C1=O
4,156 to 158 °C,CN(C)c1ccccc1CSc1nccc(=O)[nH]1
5,164 °C,CCCCNC(=O)Oc1cccc(NC(=O)C=C(C)OCC)c1
6,214 to 215 °C,COCCOc1cc(N(C)S(=O)(=O)c2cccs2)c2[nH]c(C(N)=O)cc2c1
7,179 to 180 °C,CC(C)C(=O)N(O)C(c1ccccc1)c1cc(C(C)(C)C)c(O)c(C(C)(C)C)c1 (stereo not given)
8,60 to 69 °C,CC(C)C1(C)N=C(c2ncc(C3OCCCCO3)cc2C(=O)O)NC1=O (stereo not given)
9,60 to 62 °C,C=C(CO)COC(=O)NCCCCCCCCCCCCCCC
10,188 to 190 °C,CCCCN1CCN(Cc2nc(-c3ccc4c(c3)Nc3ccccc3S4)cs2)CC1
11,85 to 87 °C,CCCc1c(OCCCCCCc2ccc(C(C)(C)C)c(O)c2O)ccc(C(=O)O)c1O
12,135 to 137 °C,CC(=O)OC(COc1ccc(C(=O)O)cc1)c1cc2cc(C(C)C)ccc2o1 (stereo not given)
13,135 to 136 °C,N#Cc1ccc(-c2ccc(C(F)(F)F)cn2)cc1SCC1CC1
14,193 to 194 °C,CCOC(=O)c1c(CS(=O)c2nccn2C)nc2cc(OC)c(OC)cc2c1-c1ccc(OC)c(OC)c1 (stereo not given)
15,231 °C,Cc1nn(CC(O)c2ccc(OC(F)(F)F)cc2)c(=O)n1-c1ccc(N2CCN(c3ccc(O)cc3)CC2)cc1 (stereo not given)
16,168 to 169 °C,CN(C)c1nc(=O)c(C(C)(C)C)nn1N
17,205 to 207 °C,O=C(O)Cc1ccc(NC(=O)C(COc2ccc(Cl)cc2)NS(=O)(=O)c2ccc(Cl)cc2)cc1 (racemic)
18,185 to 187 °C,CCc1cccc(NC(=O)c2nnn[nH]2)c1O
19,73.6 °C,BrC=C1c2ccccc2CCc2ccccc21
20,210 °C,CCCCc1nnc2ccccc2c1Cc1ccc(-c2ccccc2)c(C(=O)O)c1
21,125 °C,COc1ccc2c(c1)[C@@]1(C(=O)O)CC=CC[C@H]1CC2 (relative stereo)

row,Structure (SMILES),melting point
1,CC(C)(C)NCC(O)c1cc(Br)c(N)c([N+](=O)[O-])c1 (stereo not given),151 to 152 °C
2,O=c1[nH]c2ccccc2c(=O)n1-c1ccc(Cl)cc1,288 to 290 °C
3,C=CCCN(CCC=C)Cc1noc(-c2ncn3c2[C@@H]2CCN2C(=O)c2ccccc2-3)n1,80 to 87 °C
4,COC(=O)c1ccc(-c2nc(-c3ccc4c(c3)C(C)(C)CCC4(C)C)cs2)cc1,138 to 140 °C
5,CCN1CCC(C(c2ccccc2)c2ccccc2)C(=O)C1 (stereo not given),73 to 74 °C
